Data reported in patent US3963707A, “Novel N-nitroso compounds, compositions containing such compounds, processes for their preparation and methods of treatment therewith, and novel intermediates” (Aktiebolaget Leo, priority 1973, dated 1976).

Assays:
Hepatoma AH 130 = assay: in vivo; design: species or system SPF Wistar rats; conditions: additional compounds, result in words
Description: (§1) The high activity against tumours is further illustrated in these experiments by comparisons with known antitumour agents used in the therapy. The therapeutic indexes (T.I.), i.e. the ratios LD50/ED50, are in all comparisons much more favourable with the compounds of the present invention.
(§2) LD50 is the dose that caused a 50 percent lethality of the animals, ED50 is the dose that caused a 50 percent reduction of tumour size.
(§3) The experimental design and the interpretation of the results have been in accordance with the standards set by the CCNSC (Cancer Chemotherapy Reports, January 1959 and December 1962), and by the DR&D (Cancer Chemotherapy Reports, September 1972, Vol. 3, No. 2).
(§4) The way of administration is by the intraperitoneal route (i.p.) in each case.
Experimental animals: SPF Wistar rats.
Tumour implant: 5 × 10^6 tumour cells i.p.
(§5) Therapy: One injection i.p. on the day following implantation.
(§6) Termination: The animals are killed on the 8th day.
(§7) Evaluation: Weights of tumours of test animals compared with those of control animals.

[1] = system: Ehrlich ascites tumour, ELD hyperdiploid (46 chromosomes); assay: Ehrlich ascites tumour test (LD50, ED50, therapeutic index); assay type: in vivo, SPF NMRI mice; conditions: additional compounds, result in words
Description: as §1, §2, §3, §4
Ehrlich ascites tumour, ELD hyperdiploid (46 chromosomes)
Experimental animals: SPF NMRI mice.
Tumour implant: 2 × 10^6 tumour cells i.p.
as §5, §6, §7

Q: For `CC[C@]1(OC(=O)N(CCCl)N=O)CC[C@H]2[C@@H]3CCC4=CC(=O)CC[C@@H]4[C@H]3CC[C@@]21C` [17α-ethyl-19-nortestosterone-17β-N-(2-chloroethyl)-N-nitroso carbamate], which anti-tumor activity (Hepatoma AH 130) is on record?
A: exhibit anti-tumor activity

Q: And the anti-tumor activity [1]?
A: exhibit anti-tumor activity

Q: `C#C[C@]1(OC(=O)N(CCCl)C(=O)N(CCCl)N=O)CC[C@H]2[C@@H]3CCC4=CC(=O)CC[C@@H]4[C@H]3CC[C@@]21C` [17α-ethynyl-19-nortestosterone-17β-/N^2,N^4-bis (2-chloroethyl)-N^4-nitroso allophanate/] was tested. Which anti-tumor activity (Hepatoma AH 130) did it give?
A: exhibit anti-tumor activity

Q: And the anti-tumor activity [1]?
A: exhibit anti-tumor activity

Q: `C#C[C@]1(OC(=O)N(CCCl)N=O)CC[C@H]2[C@@H]3CCC4=CC(=O)CC[C@@H]4[C@H]3CC[C@@]21C` [17α-ethynyl-19-nortestosterone-17β-N-(2-chloroethyl)-N-nitroso carbamate] was tested. Which anti-tumor activity (Hepatoma AH 130) did it give?
A: exhibit anti-tumor activity

Q: What about the anti-tumor activity [1] of the same compound?
A: exhibit anti-tumor activity

Q: With `C#C[C@]1(OC(=O)N(CCCl)N=O)CC[C@H]2[C@@H]3CCc4cc(OC(C)=O)ccc4[C@H]3CC[C@@]21C` [17α-ethynylestradiol-3-acetate-17β-N-(2-chloroethyl)-N-nitroso carbamate] as the compound, how does the anti-tumor activity (Hepatoma AH 130) read?
A: exhibit anti-tumor activity

Q: What about the anti-tumor activity [1] of the same compound?
A: exhibit anti-tumor activity

Q: `C#C[C@]1(OC(C)=O)CC[C@H]2[C@@H]3CCc4cc(OC(=O)N(CCCl)C(=O)N(CCCl)N=O)ccc4[C@H]3CC[C@@]21C` [17α-ethynylestradiol-17β-acetate-3-/N^2,N^4-bis(2-chloroethyl)-N^4-nitroso allophanate/] was tested. Which anti-tumor activity (Hepatoma AH 130) did it give?
A: exhibit anti-tumor activity

Q: What about the anti-tumor activity [1] of the same compound?
A: exhibit anti-tumor activity

Q: Which results are given for `C#C[C@]1(OC(C)=O)CC[C@H]2[C@@H]3CCc4cc(OC(=O)N(CCCl)N=O)ccc4[C@H]3CC[C@@]21C` [17α-ethynylestradiol-17β-acetate-3-N-(2-chloroethyl)-N-nitroso carbamate]?
A: anti-tumor activity (Hepatoma AH 130): exhibit anti-tumor activity; anti-tumor activity [1]: exhibit anti-tumor activity

Q: Which anti-tumor activity (Hepatoma AH 130) does the source give for `CC(=O)[C@@]1(OC(=O)N(CCCl)N=O)CC[C@H]2[C@@H]3CCC4=CC(=O)CC[C@]4(C)[C@H]3CC[C@@]21C` [17α-hydroxy-progesterone,17α-N-(2-chloroethyl)-N-nitroso carbamate] here?
A: exhibit anti-tumor activity

Q: And the anti-tumor activity [1]?
A: exhibit anti-tumor activity

Q: Which results are given for `C[C@]12CC[C@H]3[C@@H](CCC4=CC(=O)CC[C@@H]43)[C@@H]1CC[C@@H]2OC(=O)N(C(=O)N(CCCl)N=O)C1CCCCC1` [19-nortestosterone-17β-/N^2-cyclohexyl-N^4-(2-chloroethyl)-N^4-nitroso allophanate/]?
A: anti-tumor activity (Hepatoma AH 130): exhibit anti-tumor activity; anti-tumor activity [1]: exhibit anti-tumor activity

Q: With `C[C@]12CC[C@@H](OC(=O)N(CCCl)N=O)C[C@@H]1CC[C@@H]1[C@@H]2CC[C@]2(C)[C@@H](OP(=O)(O)O)CC[C@@H]12` [androstanediol-3α-N-(2-chloroethyl)-N-nitroso carbamate-17β-dihydrogen phosphate] as the compound, how does the anti-tumor activity (Hepatoma AH 130) read?
A: exhibit anti-tumor activity

Q: What about the anti-tumor activity [1] of the same compound?
A: exhibit anti-tumor activity

Q: With `CCCCCCC(=O)O[C@H]1CC[C@H]2[C@@H]3CC[C@H]4C[C@H](OC(=O)N(CCCl)N=O)CC[C@]4(C)[C@H]3CC[C@]12C` [androstanediol-3α-N-(2-chloroethyl)-N-nitroso carbamate-17β-oenanthate] as the compound, how does the anti-tumor activity (Hepatoma AH 130) read?
A: exhibit anti-tumor activity

Q: And the anti-tumor activity [1]?
A: exhibit anti-tumor activity

Q: How did the anti-tumor activity (Hepatoma AH 130) turn out when `C[C@]12CC[C@@H](OC(=O)N(CCCl)N=O)C[C@@H]1CC[C@@H]1[C@@H]2CC[C@]2(C)[C@@H](O)CC[C@@H]12` [androstanediol-3α-N-(2-chloroethyl)-N-nitroso carbamate] was run?
A: exhibit anti-tumor activity

Q: And the anti-tumor activity [1]?
A: exhibit anti-tumor activity

Q: How did the anti-tumor activity (Hepatoma AH 130) turn out when `CC(C)CCC[C@@H](C)[C@H]1CC[C@H]2[C@@H]3CC=C4C[C@@H](OC(=O)N(C(=O)N(CCCl)N=O)C5CCCCC5)CC[C@]4(C)[C@H]3CC[C@]12C` [cholesterol-3β-/N^2-cyclohexyl-N^4-(2-chloroethyl)-N^4-nitroso allophanate/] was run?
A: exhibit anti-tumor activity

Q: What about the anti-tumor activity [1] of the same compound?
A: exhibit anti-tumor activity

Q: Which anti-tumor activity (Hepatoma AH 130) does the source give for `C[C@]12CC[C@H](OC(=O)N(CCCl)C(=O)N(CCCl)N=O)CC1=CC[C@@H]1[C@@H]2CC[C@]2(C)C(=O)CC[C@@H]12` [dehydroepiandrosterone-3β-/N^2,N^4-bis (2-chloroethyl)-N^4-nitroso allophanate/] here?
A: exhibit anti-tumor activity

Q: And the anti-tumor activity [1]?
A: exhibit anti-tumor activity

Q: `C[C@]12CC[C@H](OC(=O)N(C(=O)N(CCCl)N=O)c3ccc(Cl)cc3)CC1=CC[C@@H]1[C@@H]2CC[C@]2(C)C(=O)CC[C@@H]12` [dehydroepiandrosterone-3β-/N^2-(p-chlorophenyl)-N^4-(2-chloroethyl)-N^4-nitroso allophanate/] was tested. Which anti-tumor activity (Hepatoma AH 130) did it give?
A: exhibit anti-tumor activity

Q: And the anti-tumor activity [1]?
A: exhibit anti-tumor activity

Q: Which anti-tumor activity (Hepatoma AH 130) does the source give for `COc1ccc(N(C(=O)O[C@H]2CC[C@@]3(C)C(=CC[C@@H]4[C@@H]3CC[C@]3(C)C(=O)CC[C@@H]43)C2)C(=O)N(CCCl)N=O)cc1` [dehydroepiandrosterone-3β-/N^2-(p-methoxyphenyl)-N^4-(2-chloroethyl)-N^4-nitroso allophanate/] here?
A: exhibit anti-tumor activity

Q: And the anti-tumor activity [1]?
A: exhibit anti-tumor activity

Q: How did the anti-tumor activity (Hepatoma AH 130) turn out when `C[C@]12CC[C@H](OC(=O)N(C(=O)N(CCCl)N=O)C3CCCCC3)CC1=CC[C@@H]1[C@@H]2CC[C@]2(C)C(=O)CC[C@@H]12` [dehydroepiandrosterone-3β-/N^2-cyclohexyl-N^4-(2-chloroethyl)-N^4-nitroso allophanate/] was run?
A: exhibit anti-tumor activity

Q: And the anti-tumor activity [1]?
A: exhibit anti-tumor activity

Q: How did the anti-tumor activity (Hepatoma AH 130) turn out when `CN(C(=O)O[C@H]1CC[C@@]2(C)C(=CC[C@@H]3[C@@H]2CC[C@]2(C)C(=O)CC[C@@H]32)C1)C(=O)N(CCCl)N=O` [dehydroepiandrosterone-3β-/N^2-methyl-N^4-(2-chloroethyl)-N^4-nitroso allophanate/] was run?
A: exhibit anti-tumor activity

Q: And the anti-tumor activity [1]?
A: exhibit anti-tumor activity

Q: With `CCCCN(C(=O)O[C@H]1CC[C@@]2(C)C(=CC[C@@H]3[C@@H]2CC[C@]2(C)C(=O)CC[C@@H]32)C1)C(=O)N(CCCl)N=O` [dehydroepiandrosterone-3β-/N^2-n-butyl-N^4-(2-chloroethyl)-N^4-nitroso allophanate/] as the compound, how does the anti-tumor activity (Hepatoma AH 130) read?
A: exhibit anti-tumor activity

Q: What about the anti-tumor activity [1] of the same compound?
A: exhibit anti-tumor activity

Q: For `CC(C)(C)C(=O)OCC(=O)[C@@]1(O)CC[C@H]2[C@@H]3CCC4=CC(=O)C=C[C@]4(C)[C@H]3[C@@H](OC(=O)N(CCCl)N=O)C[C@@]21C` [prednisolone-11β-/N-(2-chloroethyl)-N-nitroso carbamate/-21-pivalate], which anti-tumor activity (Hepatoma AH 130) is on record?
A: exhibit anti-tumor activity

Q: Which anti-tumor activity (Hepatoma AH 130) does the source give for `C[C@]12C=CC(=O)C=C1CC[C@@H]1[C@@H]2[C@@H](OC(=O)N(CCCl)N=O)C[C@@]2(C)[C@H]1CC[C@]2(O)C(=O)CO` [prednisolone-11β-N-(2-chloroethyl)-N-nitroso carbamate] here?
A: exhibit anti-tumor activity

Q: With `C[C@]12C=CC(=O)C=C1CC[C@@H]1[C@@H]2[C@@H](O)C[C@@]2(C)[C@H]1CC[C@]2(O)C(=O)COC(=O)N(C(=O)N(CCCl)N=O)C1CCCCC1` [prednisolone-21-/N^2-cyclohexyl-N^4-(2-chloroethyl)-N-nitroso allophanate/] as the compound, how does the anti-tumor activity (Hepatoma AH 130) read?
A: exhibit anti-tumor activity

Q: `CC(=O)[C@H]1CC[C@H]2[C@@H]3CC=C4C[C@@H](OC(=O)N(CCCl)C(=O)N(CCCl)N=O)CC[C@]4(C)[C@H]3CC[C@]12C` [pregnenolone-3β-/N^2,N^4-bis (2-chloroethyl)-N^4-nitroso allophanate/] was tested. Which anti-tumor activity (Hepatoma AH 130) did it give?
A: exhibit anti-tumor activity

Q: `CC(=O)[C@H]1CC[C@H]2[C@@H]3CC=C4C[C@@H](OC(=O)N(C(=O)N(CCCl)N=O)C5CCC(C)CC5)CC[C@]4(C)[C@H]3CC[C@]12C` (stereo partly drawn) [pregnenolone-3β-/N^2-(4-methylcyclohexyl)-N^4-(2-chloroethyl)-N^4-nitroso allophanate/] was tested. Which anti-tumor activity (Hepatoma AH 130) did it give?
A: exhibit anti-tumor activity

Q: Which anti-tumor activity (Hepatoma AH 130) does the source give for `CC(=O)[C@H]1CC[C@H]2[C@@H]3CC=C4C[C@@H](OC(=O)N(C(=O)N(CCCl)N=O)C5CCCCC5)CC[C@]4(C)[C@H]3CC[C@]12C` [pregnenolone-3β-/N^2-cyclohexyl-N^4-(2-chloroethyl)-N^4-nitroso allophanate/] here?
A: exhibit anti-tumor activity

Q: With `CC(=O)[C@H]1CC[C@H]2[C@@H]3CC=C4C[C@@H](OC(=O)N(C)C(=O)N(CCCl)N=O)CC[C@]4(C)[C@H]3CC[C@]12C` [pregnenolone-3β-/N^2-methyl-N^4-(2-chloroethyl)-N^4-nitroso allophanate/] as the compound, how does the anti-tumor activity (Hepatoma AH 130) read?
A: exhibit anti-tumor activity

Q: How did the anti-tumor activity (Hepatoma AH 130) turn out when `CC(=O)[C@H]1CC[C@H]2[C@@H]3CC=C4C[C@@H](OC(=O)N(C(=O)N(CCCl)N=O)c5ccccc5)CC[C@]4(C)[C@H]3CC[C@]12C` [pregnenolone-3β-/N^2-phenyl-N^4-(2-chloroethyl)-N^4-nitroso allophanate/] was run?
A: exhibit anti-tumor activity

Q: `CC(=O)[C@H]1CC[C@H]2[C@@H]3CC=C4C[C@@H](OC(=O)N(CCF)N=O)CC[C@]4(C)[C@H]3CC[C@]12C` [pregnenolone-3β-N-(2-fluoroethyl)-N-nitroso carbamate] was tested. Which anti-tumor activity (Hepatoma AH 130) did it give?
A: exhibit anti-tumor activity
